Data from patent publication US10322127B2, “Methods and kits to predict therapeutic outcome of BTK inhibitors” (THE TRANSLATIONAL GENOMICS RESEARCH INSTITUTE, priority 2010, dated 2019).

Assays:
[1] = system: pancreatic cancer cell lines with a DPC4 deletion (BxPC-3 and CFPAC-1) vs DPC4 wildtype (MIA PaCa-2 and PANC-1); assay: Cell viability by Cell Titer-Glo after 96 hours of drug treatment, pancreatic cancer cell lines; type: cell-based, human; conditions: BxPC-3 and CFPAC-1 vs MIA PaCa-2 and PANC-1, FIG. 5A, *p<0.05, **p<0.0001
Method: Cell viability was measured by Cell Titer-Glo after 96 hours of drug treatment.

[2] = system: collagen-induced arthritis; conditions: mice, orally dosed; cited from earlier work
[3] = system: BCR (B cell receptor) signaling in human B cells; conditions: cited from earlier work
[4] = system: T cell receptor (TCR) signaling; conditions: cited from earlier work
[5] = system: mast cell and basophil degranulation; conditions: cited from earlier work
[6] = system: MRL/lpr lupus model; conditions: cited from earlier work

For `C=CC(=O)N1CCC[C@@H](n2nc(-c3ccc(Oc4ccccc4)cc3)c3c(N)ncnc32)C1` [PCI-32765], the “activity (inhibition of cell growth) in DPC4 deleted vs DPC4 wildtype pancreatic cancer cell lines” value [1] is listed as “more activity”, the “course of collagen induced arthritis” value [2] is listed as “reversed” and the “level of circulating autoantibodies” value [2] is listed as “reduced”. The “effect on BCR signaling” value [3] was “blocks”, the “effect on TCR signaling” value [4] was “does not affect” and the “inhibition of mast cell and basophil degranulation” value [5] was “potent inhibitor”. The “auto-antibody production and development of kidney disease” value [6] was “inhibited”.
